# According to patent EP2522331A1, “Use of resveratrol and niacinamide” (DSM IP Assets B.V., priority 2011, dated 2012):
# Like-named read-outs stand apart in the source and are kept apart here.
# System: MYO5A
# Assay: Gene modulation (RT-qPCR, PCR array mQPA H-Melanocyte-64) in normal human epidermal melanocytes (NHEM)
# Assay type: cell-based
# Conditions: NHEM cells
# Method: Normal human epidermal melanocytes were cultivated for 24 hours. Culture medium was then removed and replaced by fresh medium containing the active ingredient to be evaluated or exempt of it (control). Cells were cultivated for additional 72 hours. All experimental conditions were performed in triplicate.
# At the end of the cultivation, the cells were harvested and washed with phosphate buffered saline (PBS) solution and immediately frozen at -80 °C. The expression of selected markers was analyzed using RT-qPCR method on mRNA extracted from cells layer for each treatment condition. The differential expression analysis was performed by PCR arrays of the screening format "mQPA H-Melanocyte-64", which focuses on 64 genes selected for their importance in pigmentation and melanocyte biology.
# Total RNA was extracted from each sample using TRI-Reagent®. The amount and quality of the RNA was evaluated using a lab-on-a-chip Bioanalyzer (Agilent technologies). Potential contaminants traces of DNA were removed […] The incorporation of fluorescence in amplified DNA was measured continuously during the PCR cycles. […] The value selected for RE calculations is the "output point" (Ct) of the fluorescence curve. For a given marker, the highest is the cycle number; the lowest, is the mRNA quantity. The RE value is expressed in arbitrary units (AU) according to the equation: (((1)/(2)))^NC x 10^6 [formula] Where NC is the number of cycles.
# The analysis of the gene expression of selected melanogenesis genes in NEHM cells treated with resveratrol (5 micrograms/ml) on one side, and Niaciamide (0.5 mg/ml) on the other side, has been compared with the gene expression of the same selected melanogenesis genes in NEHM cells treated with a combination of resveratrol (5 micrograms/ml) and Niaciamide (0.5 mg/ml).
# [1] = 72 hours treatment, resveratrol 5 µg/ml, niacinamide 0.5 mg/ml, combination 5 µg/ml + 0.5 mg/ml, read-out: MYO5A (expression ratio compared to control)
# [2] = 72 hours, resveratrol 5 micrograms/ml alone or niacinamide 0.5 mg/ml alone, read-out: down-regulation of MYO5A (signed change when compared to untreated cells)
Compound,inhibition at 5 µg/mL [1],inhibition at 5 µg/mL [2],inhibition at 500 µg/mL [1],inhibition at 500 µg/mL [2]
"Oc1ccc(C=Cc2cc(O)cc(O)c2)cc1 [Resveratrol, 3,4',5 trihydroxystilbene]",25%,25%,–,–
"NC(=O)c1cccnc1 [Niacinamide, 3-pyridinecarboxamide]",–,–,15%,15%
